Tested on: serum sPLA2
Test: Effect of twice-a-day oral A-002 on serum sPLA2 levels in subjects with stable coronary artery disease (Example 6)
Assay type: in vivo, human
Protocol: The protocol for preparing standard curve, test, and quality control samples for use in the assay disclosed herein is set forth in Example 5. Samples are prepared according to this protocol, then loaded in duplicate onto a plate (Cayman catalog no. 485002 or equivalent) that has been pre-coated with a monoclonal sPLA2 antibody (“capture antibody”) that specifically binds sPLA2. In certain embodiments, the capture antibody may interact with a specific form of sPLA2, such as for example sPLA2 type IIA.
sPLA2 acetylcholinesterase:Fab′ conjugate (AChE:Fab′) (“conjugate”) (Cayman catalog no. 485000 or equivalent) is reconstituted in EIA buffer (Cayman catalog no. 400060 or equivalent). Cayman EIA buffer is 1M phosphate, pH 7.0, 1% BSA, 4M NaCl, 10 mM EDTA, and 0.1% sodium azide. Reconstituted conjugate is added to each well of the plate. The conjugate binds a different sPLA2 epitope than the capture antibody, allowing the capture antibody and the conjugate to form a “sandwich” that is immobilized on the plate. Excess reagents are washed away, and the plate is covered and incubated overnight at 2-8° C.
Prior to development, the wells are washed five to six times with wash buffer (Cayman catalog no. 400062 or equivalent). To develop the plate, Ellman's Reagent (Cayman catalog no. 400050 or equivalent) is reconstituted in water and added to each well according to manufacturer instructions. The reconstituted Ellman's Reagent must be used the same day it is prepared because it is unstable. Ellman's Reagent contains an AChE substrate. Specifically, Ellman's Reagent contains acetylthiocholine and 5,5′-dithio-bis-(2-nitrobenzoic acid). Hydrolysis of acetylthiocholine by acetylcholinesterase produces thiocholine, which reacts with 5,5′-dithio-bis-(2-nitrobenzoic acid) to produce 5-thio-2-nitrobenzoic acid. 5-thio-2-nitrobenzoic acid has a strong absorbance at 412 nm. The intensity of absorbance at this wavelength is directly proportional to the concentration of bound conjugate, which is in turn is directly proportional to the concentration of sPLA2 present (Absorbance a [AChE:Fab′ conjugate] α [sPLA2]). During the development step, the plate is shaken, preferably in the dark. In certain embodiments the development time for the assay is 0.5 to 3 hours, preferably 1 to 1.5 hours. At the end of the development period, the high sPLA2 standards should have greater yellow color development than the zero standards. Absorbance of each well is measured at 400-420 nm using a micro-well plate reader. In certain embodiments, absorbance is measured at about 405 nm.
Absorbance readings for duplicate wells are averaged, and the relative standard deviation and % CV are calculated. Standard curve data are used to generate a four parameter curve, and quality control and test samples are measured against the appropriate standard curve (i.e., the standard curve with the same serum content). In order for a test to be considered valid, variation between duplicate wells should be no more than about 25%, and negative controls (blanks) for each standard curve should have a mean absorbance of less than about 0.3.
The method disclosed herein for measuring sPLA2 levels in serum was utilized to determine the effect of administering certain sPLA2 inhibitors on sPLA2 levels in 84 human subjects. The subjects included 24 subjects with diabetes, 32 subjects with metabolic syndrome, and 75 subjects receiving statin treatment. Subjects were administered the sPLA2 inhibitor A-002, a prodrug form of A-001, twice a day at varying dosages from 50 to 500 mg. The structures of A-002and A-001 are set forth below. At two weeks and four weeks after the first administration, sPLA2 levels were measured and compared to pre-administration baseline levels.
84 subjects with stable coronary artery disease were randomized to receive placebo or A-002 via oral administration twice a day over a four week administration period. […]

[1] = A-002 (500 mg), non-statin subgroup of ITT population
[2] = A-002 Total (all dose groups), ITT subjects exhibiting at least 3 out of 5 metabolic syndrome criteria
[3] = A-002 Total (all dose groups), non-statin subgroup of ITT population
[4] = Total (all doses), ITT population
[5] = Total (all doses), diabetes subgroup of ITT population
[6] = Total (all doses), non-diabetes subgroup of ITT population
[7] = Total (all doses), statin subgroup of ITT population

## CCc1c(C(=O)C(N)=O)c2c(OCC(=O)OC)cccc2n1Cc1ccccc1 [A-002, [[3-(2-Amino-1,2-dioxoethyl)-2-ethyl-1-(phenylmethyl)-1H-indol-4-yl]oxy]acetic acid methyl ester]
A-002 (500 mg), ITT subjects exhibiting at least 3 out of 5 metabolic syndrome criteria
  sPLA2 level, Week 4, Range: 0.05 to 0.10 ng/mL
[1]
  sPLA2 level, Baseline, Mean: 2.30 ng/mL
  sPLA2 level, Baseline, Median: 2.30 ng/mL
  sPLA2 level, Baseline, Range: 1.80 to 2.80 ng/mL
  sPLA2 level, Change from baseline at week 2, Mean: -2.25 ng/mL
  sPLA2 level, Change from baseline at week 2, Median: -2.25 ng/mL
  sPLA2 level, Change from baseline at week 2, Range: -2.75 to -1.75 ng/mL
  sPLA2 level, Change from baseline at week 4, Mean: -2.08 ng/mL
  sPLA2 level, Change from baseline at week 4, Median: -2.08 ng/mL
  sPLA2 level, Change from baseline at week 4, Range: -2.40 to -1.75 ng/mL
  sPLA2 level, Week 2, Mean: 0.05 ng/mL
  sPLA2 level, Week 2, Median: 0.05 ng/mL
  sPLA2 level, Week 2, Range: 0.05 to 0.05 ng/ml
  sPLA2 level, Week 4, Mean: 0.23 ng/mL
  sPLA2 level, Week 4, Median: 0.23 ng/mL
  sPLA2 level, Week 4, Range: 0.05 to 0.40 ng/mL
[2]
  sPLA2 level, Baseline, Mean: 3.17 ng/mL
  sPLA2 level, Baseline, Median: 2.70 ng/mL
  sPLA2 level, Baseline, Range: 0.05 to 8.80 ng/mL
  sPLA2 level, Change from baseline at week 2, Mean: -2.41 ng/mL
  sPLA2 level, Change from baseline at week 2, Median: -2.45 ng/mL
  sPLA2 level, Change from baseline at week 2, Range: −5.30 to +2.85 ng/ml
  sPLA2 level, Change from baseline at week 4, Mean: -2.76 ng/mL
  sPLA2 level, Change from baseline at week 4, Median: -2.30 ng/mL
  sPLA2 level, Change from baseline at week 4, Range: -6.40 to 0.00 ng/mL
  sPLA2 level, Week 2, Mean: 0.65 ng/mL
  sPLA2 level, Week 2, Median: 0.30 ng/mL
  sPLA2 level, Week 2, Range: 0.05 to 4.00 ng/mL
  sPLA2 level, Week 4, Mean: 0.43 ng/mL
  sPLA2 level, Week 4, Median: 0.25 ng/mL
  sPLA2 level, Week 4, Range: 0.05 to 2.40 ng/mL
[3]
  sPLA2 level, Baseline, Mean: 2.92 ng/mL
  sPLA2 level, Baseline, Median: 2.80 ng/mL
  sPLA2 level, Baseline, Range: 1.80 to 4.90 ng/mL
  sPLA2 level, Change from baseline at week 2, Mean: -2.13 ng/mL
  sPLA2 level, Change from baseline at week 2, Median: -2.00 ng/mL
  sPLA2 level, Change from baseline at week 2, Range: -2.75 to -1.75 ng/mL
  sPLA2 level, Change from baseline at week 4, Mean: -2.49 ng/mL
  sPLA2 level, Change from baseline at week 4, Median: -2.20 ng/mL
  sPLA2 level, Change from baseline at week 4, Range: -4.40 to -1.70 ng/mL
  sPLA2 level, Week 2, Mean: 0.58 ng/mL
  sPLA2 level, Week 2, Median: 0.48 ng/mL
  sPLA2 level, Week 2, Range: 0.05 to 1.30 ng/mL
  sPLA2 level, Week 4, Mean: 0.65 ng/mL
  sPLA2 level, Week 4, Median: 0.50 ng/mL
  sPLA2 level, Week 4, Range: 0.05 to 1.20 ng/mL
ITT population, stable coronary artery disease, A-002 50, 100, 250 or 500 mg oral twice a day, end of weeks two and four vs baseline, dose-independent
  serum sPLA2 levels: decreased serum sPLA2 levels
[4]
  sPLA2 Change from baseline at week 2, Mean: -2.35 ng/mL
  sPLA2 Change from baseline at week 2, Median: -2.40 ng/mL
  sPLA2 Change from baseline at week 2, Range: −5.30 to +2.85 ng/ml
  sPLA2 Change from baseline at week 4, Mean: -2.53 ng/mL
  sPLA2 Change from baseline at week 4, Median: -2.35 ng/mL
  sPLA2 Change from baseline at week 4, Range: -6.40 to 0.20 ng/mL
  sPLA2 level, Baseline, Mean: 2.99 ng/mL
  sPLA2 level, Baseline, Median: 2.70 ng/mL
  sPLA2 level, Baseline, Range: 0.05 to 8.80 ng/mL
  sPLA2 level, Week 2, Mean: 0.60 ng/mL
  sPLA2 level, Week 2, Median: 0.30 ng/mL
  sPLA2 level, Week 2, Range: 0.05 to 4.40 ng/mL
  sPLA2 level, Week 4, Mean: 0.51 ng/mL
  sPLA2 level, Week 4, Median: 0.35 ng/mL
  sPLA2 level, Week 4, Range: 0.05 to 2.40 ng/mL
[5]
  sPLA2 Change from baseline at week 2, Mean: -2.03 ng/mL
  sPLA2 Change from baseline at week 2, Median: -2.40 ng/mL
  sPLA2 Change from baseline at week 2, Range: −4.80 to +2.85 ng/ml
  sPLA2 Change from baseline at week 4, Mean: -2.31 ng/mL
  sPLA2 Change from baseline at week 4, Median: -1.90 ng/mL
  sPLA2 Change from baseline at week 4, Range: −5.70 to +0.20 ng/ml
  sPLA2 level, Baseline, Mean: 2.91 ng/mL
  sPLA2 level, Baseline, Median: 2.75 ng/mL
  sPLA2 level, Baseline, Range: 0.05 to 6.00 ng/mL
  sPLA2 level, Week 2, Mean: 0.67 ng/mL
  sPLA2 level, Week 2, Median: 0.50 ng/mL
  sPLA2 level, Week 2, Range: 0.05 to 2.90 ng/mL
  sPLA2 level, Week 4, Mean: 0.53 ng/mL
  sPLA2 level, Week 4, Median: 0.50 ng/mL
  sPLA2 level, Week 4, Range: 0.05 to 1.50 ng/mL
[6]
  sPLA2 Change from baseline at week 2, Mean: -2.48 ng/mL
  sPLA2 Change from baseline at week 2, Median: -2.40 ng/mL
  sPLA2 Change from baseline at week 2, Range: -5.30 to -0.40 ng/mL
  sPLA2 Change from baseline at week 4, Mean: -2.63 ng/mL
  sPLA2 Change from baseline at week 4, Median: -2.45 ng/mL
  sPLA2 Change from baseline at week 4, Range: -6.40 to -0.55 ng/mL
  sPLA2 level, Baseline, Mean: 3.02 ng/mL
  sPLA2 level, Baseline, Median: 2.60 ng/mL
  sPLA2 level, Baseline, Range: 0.60 to 8.80 ng/mL
  sPLA2 level, Week 2, Mean: 0.57 ng/mL
  sPLA2 level, Week 2, Median: 0.30 ng/mL
  sPLA2 level, Week 2, Range: 0.05 to 4.40 ng/mL
  sPLA2 level, Week 4, Mean: 0.51 ng/mL
  sPLA2 level, Week 4, Median: 0.30 ng/mL
  sPLA2 level, Week 4, Range: 0.05 to 2.40 ng/mL
[7]
  sPLA2 Change from baseline at week 2, Mean: -2.37 ng/mL
  sPLA2 Change from baseline at week 2, Median: -2.43 ng/mL
  sPLA2 Change from baseline at week 2, Range: −5.30 to +2.85 ng/ml
  sPLA2 Change from baseline at week 4, Mean: -2.53 ng/mL
  sPLA2 Change from baseline at week 4, Median: -2.43 ng/mL
  sPLA2 Change from baseline at week 4, Range: −6.40 to +0.20 ng/ml
  sPLA2 level, Baseline, Mean: 3.00 ng/mL
  sPLA2 level, Baseline, Median: 2.70 ng/mL
  sPLA2 level, Baseline, Range: 0.05 to 8.80 ng/mL
  sPLA2 level, Week 2, Mean: 0.60 ng/mL
  sPLA2 level, Week 2, Median: 0.30 ng/mL
  sPLA2 level, Week 2, Range: 0.05 to 4.40 ng/mL
  sPLA2 level, Week 4, Mean: 0.50 ng/mL
  sPLA2 level, Week 4, Median: 0.30 ng/mL
  sPLA2 level, Week 4, Range: 0.05 to 2.40 ng/mL
All subject subpopulations (diabetic/non-diabetic, metabolic syndrome/non-metabolic syndrome, statin/non-statin), all dosages 50 to 500 mg twice a day, two and four weeks
  sPLA2 levels compared to pre-administration baseline: substantial decrease in sPLA2 levels
Diabetic and non-diabetic subpopulations, A-002 50-500 mg oral twice a day, weeks two and four
  serum sPLA2 levels: decrease was observed
Metabolic syndrome subpopulation, A-002 50-500 mg oral twice a day, weeks two and four
  serum sPLA2 levels: decrease was observed
Statin and non-statin subpopulations, A-002 50-500 mg oral twice a day, weeks two and four
  serum sPLA2 levels: decrease was observed

Source: patent US20090062369A1, “USE OF SECRETORY PHOSPHOLIPASE A2 (SPLA2) INHIBITORS TO DECREASE SPLA2 LEVELS” (priority 2007, published 2009)
